IC50 data for 24 molecules are collected here from US9695198B2, “Factor IXa inhibitors” (MERCK SHARP & DOHME CORP., priority 2012, dated 2017).

The structures appear in SMILES notation.

Factor IXa, sequence (P00740 227-461 limits assumed): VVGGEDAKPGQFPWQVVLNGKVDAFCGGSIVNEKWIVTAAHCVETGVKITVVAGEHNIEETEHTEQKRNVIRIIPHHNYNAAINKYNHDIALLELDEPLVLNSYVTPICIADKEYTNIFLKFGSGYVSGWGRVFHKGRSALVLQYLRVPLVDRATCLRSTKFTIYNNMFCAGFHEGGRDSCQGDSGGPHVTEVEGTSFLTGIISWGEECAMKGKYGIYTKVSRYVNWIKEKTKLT
Factor IXa, sequence (P00740 47-191 partner limits assumed): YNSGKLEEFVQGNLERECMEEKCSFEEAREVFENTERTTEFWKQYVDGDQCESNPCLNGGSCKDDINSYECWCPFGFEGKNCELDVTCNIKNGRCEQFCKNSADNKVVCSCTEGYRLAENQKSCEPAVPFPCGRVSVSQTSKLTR

This assay has as its target Factor IXa (Homo sapiens, UniProt P00740). Description: Determination of inhibitory activity against Factor IXa (cleavage of fluorescent peptide CH3SO2-D-CHG-Gly-Arg-AFC). The assay is classed as biochemical. As to conditions: Factor IXa Inhibition table; low enzyme format; read-out: FIXa Low Enzyme. On the procedure: Determination of Inhibitory Activity Against Factor IXa
Formation of a clot to stem bleeding at a site of blood vessel injury involves the coordinated activity of a group of plasma proteins that initiate and propagate fibrin formation and subsequently protect fibrin from premature degradation. Factor IX is a key component of the plasma system that forms a fibrin clot at a site of vascular injury. The activity of Factor IXa is measured by monitoring the cleavage of the fluorescent peptide, CH3SO2-D-CHG-Gly-Arg-AFC.AcOH (“CHG” is cyclohexyl-glycine and “AFC” is trifluoro aminomethyl coumarin). Factor IXa cleaves the amide bond between Arg and AFC, thereby releasing the AFC fluorophore. The free AFC can be detected with a fluorescence detector at an excitation wavelength of 405 nm and emission wavelength of 510 nm.
On to `Nc1noc2c1ccc1[nH]c([C@H](O)[C@H]3OCCN(c4ccn(-c5ccncc5)n4)C3=O)nc(=O)c12` [Example 1, 3-Amino-7-((S)-hydroxy((R)-3-oxo-4-(1-(pyridin-4-yl)-1H-pyrazol-3-yl)morpholin-2-yl)methyl)isoxazolo[5,4-f]quinazolin-9(6H)-one], for which the IC50 came to 14.5 nM. As for `Nc1nsc2c1ccc1[nH]c([C@H](O)[C@H]3OCCN(c4ccn(-c5ccncc5)n4)C3=O)nc(=O)c12` [Example 2, (R)-2-((S)-(3-Amino-9-oxo-6,9-dihydroisothiazolo[5,4-f]quinazolin-7-yl)(hydroxy)methyl)-4-(1-(pyridin-4-yl)-1H-pyrazol-3-yl)morpholin-3-one], the figure is 4.65 nM. Then `Cc1cc(N2CCO[C@H]([C@@H](O)c3nc(=O)c4c(ccc5c(N)nsc54)[nH]3)C2=O)nn1-c1ccncc1` [Example 3, (R)-2-((S)-(3-Amino-9-oxo-6,9-dihydroisothiazolo[5,4-f]quinazolin-7-yl)(hydroxy)methyl)-4-(5-methyl-1-(pyridin-4-yl)-1H-pyrazol-3-yl)morpholin-3-one], with 11.3 nM; and `Cc1cc(N2CCO[C@H]([C@@H](O)c3nc(=O)c4c(ccc5c(N)nsc54)[nH]3)C2=O)nn1-c1cccnc1` [Example 4, (R)-2-((S)-(3-Amino-9-oxo-6,9-dihydroisothiazolo[5,4-f]quinazolin-7-yl)(hydroxy)methyl)-4-(5-methyl-1-(pyridin-3-yl)-1H-pyrazol-3-yl)morpholin-3-one], with 58.6 nM. In the case of `COc1cc(-n2ccc(N3CCO[C@H]([C@@H](O)c4nc(=O)c5c(ccc6c(N)nsc65)[nH]4)C3=O)n2)ccn1` [Example 5, (R)-2-((S)-(3-Amino-9-oxo-6,9-dihydroisothiazolo[5,4-f]quinazolin-7-yl)(hydroxy)methyl)-4-(1-(2-methoxypyridin-4-yl)-1H-pyrazol-3-yl)morpholin-3-one], the IC50 worked out at 10.8 nM. Then `COc1cc(-n2nc(N3CCO[C@H]([C@@H](O)c4nc(=O)c5c(ccc6c(N)nsc65)[nH]4)C3=O)cc2C)ccn1` [Example 6, (R)-2-((S)-(3-Amino-9-oxo-6,9-dihydroisothiazolo[5,4-f]quinazolin-7-yl)(hydroxy)methyl)-4-(1-(2-methoxypyridin-4-yl)-5-methyl-1H-pyrazol-3-yl)morpholin-3-one], with 58.2 nM. As for `Nc1nsc2c1ccc1[nH]c([C@H](O)[C@H]3OCCN(c4ccn(-c5ccnc(C(F)(F)F)c5)n4)C3=O)nc(=O)c12` [Example 7, (R)-2-((S)-(3-Amino-9-oxo-6,9-dihydroisothiazolo[5,4-f]quinazolin-7-yl)(hydroxy)methyl)-4-(1-(2-(trifluoromethyl)pyridin-4-yl)-1H-pyrazol-3-yl)morpholin-3-one], the IC50 was 9.37 nM. As to `Cc1cc(N2CCO[C@H]([C@@H](O)c3nc(=O)c4c(ccc5c(N)nsc54)[nH]3)C2=O)nn1-c1ccnc(C(F)(F)F)c1` [Example 8, (R)-2-((S)-(3-Amino-9-oxo-6,9-dihydroisothiazolo[5,4-f]quinazolin-7-yl)(hydroxy)methyl)-4-(5-methyl-1-(2-(trifluoromethyl)pyridin-4-yl)-1H-pyrazol-3-yl)morpholin-3-one], the IC50 was 17.8 nM. On to `Nc1nsc2c1ccc1[nH]c([C@H](O)[C@H]3OCCN(c4ccn(-c5ccnnc5)n4)C3=O)nc(=O)c12` [Example 9, (R)-2-((S)-(3-Amino-9-oxo-6,9-dihydroisothiazolo[5,4-f]quinazolin-7-yl)(hydroxy)methyl)-4-(1-(pyridazin-4-yl)-1H-pyrazol-3-yl)morpholin-3-one], for which the IC50 came out at 1.87 nM.

For the molecule `Nc1nsc2c1ccc1[nH]c([C@H](O)[C@H]3OCCN(c4ccn(-c5ccc(=O)n(C(F)F)c5)n4)C3=O)nc(=O)c12` [Example 10, (R)-2-((S)-(3-Amino-9-oxo-6,9-dihydroisothiazolo[5,4-f]quinazolin-7-yl)(hydroxy)methyl)-4-(1-(1-(difluoromethyl)-6-oxo-1,6-dihydropyridin-3-yl)-1H-pyrazol-3-yl)morpholin-3-one], the IC50 is 3.04 nM. For `Cc1cc(N2CCO[C@H]([C@@H](O)c3nc(=O)c4c(ccc5c(N)nsc54)[nH]3)C2=O)nn1-c1ccc(F)cc1` [Example 11, (R)-2-((S)-(3-Amino-9-oxo-6,9-dihydroisothiazolo[5,4-f]quinazolin-7-yl)(hydroxy)methyl)-4-(1-(4-fluorophenyl)-5-methyl-1H-pyrazol-3-yl)morpholin-3-one], the IC50 was determined as 52.1 nM.

Take `N#Cc1ccc(-n2ccc(N3CCO[C@H]([C@@H](O)c4nc(=O)c5c(ccc6c(N)nsc65)[nH]4)C3=O)n2)cc1` [Example 12, 4-(3-((R)-2-((S)-(3-Amino-9-oxo-6,9-dihydroisothiazolo[5,4-f]quinazolin-7-yl)(hydroxy)methyl)-3-oxomorpholino)-1H-pyrazol-1-yl)benzonitrile]: the IC50 was determined as 3.07 nM. Consider `N#Cc1ccc(-n2ccc(N3CCO[C@H]([C@@H](O)c4nc(=O)c5c(ccc6c(N)nsc65)[nH]4)C3=O)n2)cc1C(F)(F)F` [Example 13, 4-(3-((R)-2-((S)-(3-Amino-9-oxo-6,9-dihydroisothiazolo[5,4-f]quinazolin-7-yl)(hydroxy)methyl)-3-oxomorpholino)-1H-pyrazol-1-yl)-2-(trifluoromethyl)benzonitrile], for which the IC50 was determined as 28.3 nM. As for `Cc1cc(N2CCO[C@H]([C@@H](O)c3nc(=O)c4c(ccc5c(N)nsc54)[nH]3)C2=O)nn1C` [Example 14, (R)-2-((S)-(3-Amino-9-oxo-6,9-dihydroisothiazolo[5,4-f]quinazolin-7-yl)(hydroxy)methyl)-4-(1,5-dimethyl-1H-pyrazol-3-yl)morpholin-3-one], the figure is 43.7 nM; as for `Nc1nsc2c1ccc1[nH]c([C@H](O)[C@H]3OCCN(c4ccn(C5CC5)n4)C3=O)nc(=O)c12` [Example 15, (R)-2-((S)-(3-Amino-9-oxo-6,9-dihydroisothiazolo[5,4-f]quinazolin-7-yl)(hydroxy)methyl)-4-(1-cyclopropyl-1H-pyrazol-3-yl)morpholin-3-one], 39.8 nM. As for `Cc1cc(N2CCO[C@H]([C@@H](O)c3nc(=O)c4c(ccc5c(N)nsc54)[nH]3)C2=O)nn1C1CCOCC1` [Example 16, (R)-2-((S)-(3-Amino-9-oxo-6,9-dihydroisothiazolo[5,4-f]quinazolin-7-yl)(hydroxy)methyl)-4-(5-methyl-1-(tetrahydro-2H-pyran-4-yl)-1H-pyrazol-3-yl)morpholin-3-one], the figure is 31.9 nM; as for `Nc1nsc2c1ccc1[nH]c([C@H](O)[C@H]3OCCN(c4cccc(C(F)(F)F)n4)C3=O)nc(=O)c12` [Example 17, (R)-2-((S)-(3-Amino-9-oxo-6,9-dihydroisothiazolo[5,4-f]quinazolin-7-yl)(hydroxy)methyl)-4-(6-(trifluoromethyl)pyridin-2-yl)morpholin-3-one], 43.7 nM; as for `Nc1nsc2c1ccc1[nH]c([C@H](O)[C@H]3OCCN(c4nc(C(F)(F)F)ccc4F)C3=O)nc(=O)c12` [Example 18, (R)-2-((S)-(3-Amino-9-oxo-6,9-dihydroisothiazolo[5,4-f]quinazolin-7-yl)(hydroxy)methyl)-4-(3-fluoro-6-(trifluoromethyl)pyridin-2-yl)morpholin-3-one], 44.2 nM. Then `Nc1nsc2c1ccc1[nH]c([C@H](O)[C@H]3OCCN(c4cccc(OC(F)F)n4)C3=O)nc(=O)c12` [Example 19, (R)-2-((S)-(3-Amino-9-oxo-6,9-dihydroisothiazolo[5,4-f]quinazolin-7-yl)(hydroxy)methyl)-4-(6-(difluoromethoxy)pyridin-2-yl)morpholin-3-one], with 83.3 nM; and `Nc1nsc2c1ccc1[nH]c([C@H](O)[C@H]3OCCN(c4cccc(C5CC5)n4)C3=O)nc(=O)c12` [Example 20, (R)-2-((S)-(3-Amino-9-oxo-6,9-dihydroisothiazolo[5,4-f]quinazolin-7-yl)(hydroxy)methyl)-4-(6-cyclopropylpyridin-2-yl)morpholin-3-one], with 88.6 nM. For the molecule `CC(C)(O)c1cccc(N2CCO[C@H]([C@@H](O)c3nc(=O)c4c(ccc5c(N)nsc54)[nH]3)C2=O)n1` [Example 21, (R)-2-((S)-(3-Amino-9-oxo-6,9-dihydroisothiazolo[5,4-f]quinazolin-7-yl)(hydroxy)methyl)-4-(6-(2-hydroxypropan-2-yl)pyridin-2-yl)morpholin-3-one], the IC50 is 12.3 nM. Then `CC(C)(O)c1nc(N2CCO[C@H]([C@@H](O)c3nc(=O)c4c(ccc5c(N)nsc54)[nH]3)C2=O)ccc1C(F)(F)F` [Example 22, (R)-2-((S)-(3-Amino-9-oxo-6,9-dihydroisothiazolo[5,4-f]quinazolin-7-yl)(hydroxy)methyl)-4-(6-(2-hydroxypropan-2-yl)-5-(trifluoromethyl)pyridin-2-yl)morpholin-3-one], with 25.6 nM; and `CC(=O)OC1(c2cccc(N3CCO[C@H]([C@@H](O)c4nc(=O)c5c(ccc6c(N)nsc65)[nH]4)C3=O)n2)CCC1` [Example 23, 1-(6-((R)-2-((S)-(3-Amino-9-oxo-6,9-dihydroisothiazolo[5,4-f]quinazolin-7-yl)(hydroxy)methyl)-3-oxomorpholino)pyridin-2-yl)cyclobutyl acetate], with 31.5 nM. In the case of `Nc1nsc2c1ccc1[nH]c([C@H](O)[C@H]3OCCN(c4cccc(C5(O)CCC5)n4)C3=O)nc(=O)c12` [Example 24, (R)-2-((S)-(3-Amino-9-oxo-6,9-dihydroisothiazolo[5,4-f]quinazolin-7-yl)(hydroxy)methyl)-4-(6-(1-hydroxycyclobutyl)pyridin-2-yl)morpholin-3-one], the IC50 was found to be 24.8 nM.
